The test system of data set [1] is 6-hydroxydopamine lesion of the substantia nigra. Briefly: 6-Hydroxydopamine (6-OH-DA) lesion in the rat, staircase test (forepaw coordination). To be noted: bid, i.p. It counts as in vivo.
Data set [2] is described as follows: Solubility in solvents. It counts as physicochemical. The text has this: Galiella lactone has the physical and chemical properties described hereinafter. […] It was possible with the aid of the mass spectra (Table 1) to establish firstly the molecular weight of 194 Da and then the molecular formula of C11H14O3.
In data set [3] the test system is IL-6-induced and Stat3-mediated SEAP synthesis. Briefly: Inhibition of IL-6- and Stat3-mediated SEAP reporter gene expression in HepG2 cells. It counts as cell-based. To be noted: Homo sapiens; HepG2, induction with IL-6 10 ng/ml, 24 h; read-out: concentration for half-maximal SEAP synthesis inhibition (IC50). As for the experimental part:
The following bioassay was carried out for fundamental exemplary experiments for detecting the inhibition of IL-6- and Stat3-mediated gene expression:
The initial vector used was the vector pTK/SEAP (Biochem. Biophys. Res. Commun., 1996, 226: 214-21) (see FIG. 1) which contains the gene of secreted alkaline phosphatase (SEAP) as reporter gene. This vector was linearized with the restriction enzyme Nhel and then dephosphorylated. The following oligonucleotides
which contain a binding site for Stat3 and Stat1 proteins (cf. Proc. Natl. Acad. Sci. USA, 1995, 92: 3041-5) were phosphorylated, ligated and precipitated with ethanol. […]
The HepG2 cells were cultivated in a moist atmosphere with 5% CO2 at 37° C. in 50 ml of DMEM (Gibco BRL, Life Technologies GmbH. Dieselstr, 5, 76344 Eggenstein) with 10% fetal calf serum, and penicillin/streptomycin (100 iu) in 600 ml cell culture bottles. […] The cell count was determined using a counting chamber and was adjusted to 6-8×10^6 cells/ml. […]
Cytotoxic effects of the compounds on the cells were investigated by microscopy after 24 h. Likewise after 24 h. the SEAP activity was determined using the Phospha-Light™ chemoluminescence assay (Perkins-Elmer Applied Biosystems, Langen) and, under the chosen conditions, is directly proportional to the SEAP concentration in the analysed sample. […]

For data set [4], the system named is HT 29. Briefly: Growth inhibition test (MTT), cytotoxic properties on tumour cell lines. It counts as cell-based. To be noted: Homo sapiens, HT-29, 144 h; HAT29, MTT, day 6; read-out: cytotoxic effect IC50. As for the experimental part:
(§1) The human colon cell lines SW 480 and HT 29 (ATCC Nos. CCL 228 and HBT-38), the mouse melanoma cell line B16F10 and the human prostate tumour cell lines LNCaP-FGC, PC-3 and DU 145 (ATCC No. CRL-10995, CRL-1435, HTB-81) were grown in RPMI 1640 medium with addition of 10% FCS in Roux dishes. This was followed by trypsinization and taking up in RPMI plus 10% FCS to a cell count of 50 000 cell/ml. 100 μl of cell suspension/well were put in a 96-microwell plate and incubated in a CO2 incubator at 37° C. for 1 day. A further 100 μl of RPMI medium and 1 μl of DMSO with galiella lactone were then added. The growth was monitored after day 6. For this purpose, 40 μl of MTT solution (3-(4,5-dimethylthiazol-2-yl)-2,5-diphenyltetrazolium bromide) with an initial concentration of 5 mg/ml of H2O were added to each microwell. Incubation took place in a CO2 incubator at 37° C. for 5 hours. The medium was then separated off, and 100 μl of i-propanol/well were added. After shaking with 100 μl of H2 O for 30 min, the extinction at 540 nm was measured with a Titertek Multiscan MCC/340 (flow).
(§2) The cytotoxic effect is indicated in the table as IC50 (galiella lactone concentration in μM) for the various tumour cell lines: […]

The subject of data set [5] is SW 480. The data set is described as above. It is filed as cell-based. To be noted: Homo sapiens, 144 h; SW480, MTT, day 6; read-out: cytotoxic effect IC50. As for the experimental part:
as §1, §2

Data set [6] relates to B16F10. The description is as above. It is filed as cell-based. To be noted: Mus musculus, B16-F10, 144 h, day 6, read-out: cytotoxic effect IC50. As to the method:
as §1, §2

For data set [7], the system named is LNCaP-FGC. The data set is described as above. It counts as cell-based. To be noted: Homo sapiens, 144 h, day 6, read-out: cytotoxic effect IC50. As for the experimental part: as §1, §2
Data set [8] relates to DU 145. The data set is described as above. To be noted: Homo sapiens, DU-145, 144 h; DU145, MTT, day 6; read-out: cytotoxic effect IC50. It is filed as cell-based. As to the method: as §1, §2
In data set [9] the test system is PC-3. Described as above. It counts as cell-based. To be noted: Homo sapiens, 144 h; PC-3, MTT, day 6; read-out: cytotoxic effect IC50. As for the experimental part: as §1, §2

The structures appear in SMILES notation.

`C[C@H]1C=C2C(=O)O[C@H]3CC[C@@H](C1)[C@@]23O` [galiella lactone]: the “fine motor control of the forepaws (staircase test)” value in data set [1] (1.0 mg/kg) and in data set [1] (3.0 mg/kg) was “improved” throughout. Also, the “solubility in nonpolar solvents” value in [2] (cyclohexane, n-pentane, n-hexane) is reported as “scarcely soluble”. Further, in data set [2] (methanol, pyridine, ethyl acetate, acetonitrile, TBME, THF and water), the “solubility in polar solvents” value is given as “readily soluble”. For the same compound, the IC50 in data set [3] was 0.05 to 0.1 µM; in data set [4], 5 µM; in data set [5] it was 5 µM; in data set [6], 3 µM; in data set [7] it was 2 µM; in data set [8] it was 4.5 µM. Further, the IC50 in data set [9] was 4 µM.
